From publication PMC5736175, “Nicotinic alpha 7 receptor agonists EVP-6124 and BMS-933043, attenuate scopolamine-induced deficits in visuo-spatial paired associates learning” (PLoS ONE, 2017)
Values joined by “and” are separate entries in the source; they are usually repeats but may differ in a detail not shown here. Identical values can stand only once.

What was measured:
[1] = Plasma pharmacokinetics in satellite animals (LC-MS/MS), 60 min after i.m. dose; conditions: individual subjects
Description: (§1) For all compounds, plasma pharmacokinetic studies were conducted in a separate cohort of cynomolgus monkeys (N = 2–3 subjects per dose) before beginning vsPAL testing to help guide dose selection. Blood samples were obtained with the animals awake and sitting in a primate chair.
(§2) Plasma concentrations of test compounds were determined using LC-MS/MS assays. In brief, 50 μL plasma and sample containing compounds was extracted by protein precipitation method with 150 μL acetonitrile containing an internal standard. A 5 μL sample of supernatant was injected into the LC-MS/MS system. Analytes were separated by reversed phase chromatography and detection of each analyte was achieved through selected reaction monitoring mode of mass spectrometry. Samples were quantified by calculated peak area ratio of analyte and internal standard against a calibration curve.

[2] = Plasma concentration in vsPAL subjects immediately after completion of testing (LC-MS/MS); conditions: individual subjects
Description: as §1, with “chair. For most test sessions with BMS-933043 and EVP-6124, plasma samples were also taken from a subset of vsPAL subjects (N = 4–5) immediately after completion of testing (mean (SD) sample collection time = 69.8 (9.8) min post injection).” for “chair.”
as §2

human nAChR α7 [3] = tested on: human nAChR α7; parameters: method as in PMID 27467081; conditions: intrinsic activity; HEK293 cells expressing human nAChR α7; cited from earlier work
human nAChR α7 [4] = tested on: human nAChR α7; parameters: method as in PMID 20959364, PMID 22085888; conditions: xenopus oocytes expressing human nAChR α7; cited from earlier work
5-HT3 receptor = conditions: cited from earlier work
[5] = parameters: method as in PMID 25438724; conditions: 20 mg dose (maximal DSST effects), cited from earlier work

For `Cl.O=C(N[C@H]1CN2CCC1CC2)c1cc2cccc(Cl)c2s1` [EVP-6124, (R)-7-chloro-N-(quinuclidin-3-yl)benzo[b]thiophene-2-carboxamide HCl], the “nM total compound in plasma from satellite animals, 60 min” value (from here on “nM total compound in plasma … 60 min”) ([1]; 0.03 mg/kg i.m.) was 4.1 nM and 3.5 nM, the “nM total compound in plasma … 60 min” value ([1]; 0.10 mg/kg i.m.) was 9.5 nM and the “nM total compound in plasma … 60 min” value ([1]; 0.30 mg/kg i.m.) was 39.6 nM. For the same molecule, the “nM total compound in plasma … 60 min” value ([1]; 1.00 mg/kg i.m.) was 103.0 nM, the “nM total compound in plasma post session” value ([2]; 0.003 mg/kg i.m.) was 0.5 nM and 1.4 nM and 1.6 nM and 1.1 nM and 0.496 nM and the “nM total compound in plasma post session” value ([2]; 0.01 mg/kg i.m., row) was 1.526 nM and 1.174 nM and 1.539 nM. For the same molecule, the “nM total compound in plasma post session” value ([2]; 0.03 mg/kg i.m.) was 4.44 nM and 6.8 nM and 3.56 nM, the “nM total compound in plasma post session” value ([2]; 0.10 mg/kg i.m.) was 14.8 nM and 14.9 nM and 11.8 nM and 10.9 nM and the “nM total compound in plasma post session” value ([2]; 0.30 mg/kg i.m.) was 76.7 nM and 38.4 nM and 48.3 nM and 47.3 nM. For the same molecule, the “nM total compound in plasma post session” value ([2]; 1.00 mg/kg i.m.) was 196 nM and 145 nM and 188 nM and 192 nM, the “net charge relative to acetylcholine” value (human nAChR α7 [3]) was 136% and the “peak current response relative to acetylcholine” value (human nAChR α7 [3]) was 32%. The “maximal peak current, % of the acetylcholine response” value (human nAChR α7 [4]) was 80%, the 5-HT3 receptor antagonism (5-HT3 receptor) was “potent 5-HT3 receptor antagonists” and the “plasma Cmax” value [5] was 10.4 ng/mL. For the same molecule, the Cmax ([5]; read-out: plasma Cmax) was 32 nM.
